Laboratory results taken from patent US9834542B2, “LXR modulators” (BRISTOL-MYERS SQUIBB COMPANY, priority 2013, dated 2017).

Target: T1, LXRβ (Homo sapiens, UniProt P55055)
T1 construct: Co-transfection expression plasmids, comprising full-length LXRα (pCMX-h LXRα[…] or LXRβ (pCMX-hLXRβ)); expressed in transfected cells; host or cells: CV-1 African Green Monkey Kidney Cells
T1 sequence (P55055 1-460): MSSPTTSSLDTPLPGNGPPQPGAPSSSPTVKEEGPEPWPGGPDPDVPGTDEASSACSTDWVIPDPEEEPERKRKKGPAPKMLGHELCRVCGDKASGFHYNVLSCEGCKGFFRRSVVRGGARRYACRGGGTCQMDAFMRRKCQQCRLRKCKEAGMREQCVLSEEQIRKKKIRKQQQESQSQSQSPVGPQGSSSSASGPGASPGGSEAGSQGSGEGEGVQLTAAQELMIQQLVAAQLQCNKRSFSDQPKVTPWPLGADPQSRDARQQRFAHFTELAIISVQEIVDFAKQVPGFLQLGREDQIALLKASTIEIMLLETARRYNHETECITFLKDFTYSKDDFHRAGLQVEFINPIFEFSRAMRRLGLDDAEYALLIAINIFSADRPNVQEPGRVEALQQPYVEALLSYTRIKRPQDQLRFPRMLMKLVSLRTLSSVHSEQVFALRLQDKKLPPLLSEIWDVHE
T1 sequence (P19793 1-462 partner): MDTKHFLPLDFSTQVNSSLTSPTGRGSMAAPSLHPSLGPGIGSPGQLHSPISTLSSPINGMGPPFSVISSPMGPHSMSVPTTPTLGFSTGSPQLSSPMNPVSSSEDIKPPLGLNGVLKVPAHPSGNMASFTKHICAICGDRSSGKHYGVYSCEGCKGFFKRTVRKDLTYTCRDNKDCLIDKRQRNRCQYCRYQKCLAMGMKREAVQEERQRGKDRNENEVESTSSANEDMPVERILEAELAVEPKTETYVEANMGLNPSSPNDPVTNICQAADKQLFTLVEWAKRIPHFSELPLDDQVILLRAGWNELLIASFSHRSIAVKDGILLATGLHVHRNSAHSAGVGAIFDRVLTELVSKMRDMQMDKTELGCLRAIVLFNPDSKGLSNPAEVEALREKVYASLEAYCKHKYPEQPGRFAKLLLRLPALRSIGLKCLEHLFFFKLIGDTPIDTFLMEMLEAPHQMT
Experiment: Co-transfection assay (LXRE luciferase reporter), LXRβ
Type: cell-based
Conditions: for EC50: CV-1 cells transfected with pCMX-hLXRβ and LXREx1-Tk-Luciferase, 20 hours incubation; for Emax: LXRβ co-transfection, relative to high control 1-(2,4-difluorobenzyl)-2-oxo-6-(4-phenoxyphenyl)-4-(trifluoromethyl)-1,2-dihydropyridine-3-carbonitrile, read-out: % Efficacy
Method in brief: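 Luciferase signal from an LXREx1-Tk reporter was measured after transfected CV-1 cells (full-length hLXRβ, endogenous RXR) were treated with compounds for 20 h at 37 °C, ≤0.5% DMSO. EC50 came from four-parameter fits of 11-point ½-log curves; % efficacy versus a reference agonist maximum.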

SMILES	EC50	Emax
CCc1nc(-c2cc(-c3ccc(CO)c(S(C)(=O)=O)c3)ccc2-n2cc(C(F)(F)F)nc2C)c(-c2ccc(OC(F)(F)F)cc2)o1 [Example 519, (3′-(2-ethyl-5-(4-(trifluoromethoxy)phenyl)oxazol-4-yl)-4′-(2-methyl-4-(trifluoromethyl)-1H-imidazol-1-yl)-3-(methylsulfonyl)-[1,1′-biphenyl]-4-yl)methanol]	140 nM	100%
Cc1nc(C(F)(F)F)cn1-c1cc(F)c(-c2cccc(S(C)(=O)=O)c2)cc1-n1nncc1-c1ccc(OC(F)(F)F)cc1 [Example 99, 1-{6-fluoro-3′-(methylsulfonyl)-4-[2-methyl-4-(trifluoromethyl)-1H-imidazol-1-yl]biphenyl-3-yl}-5-{4-[(trifluoromethyl)oxy]phenyl}-1H-1,2,3-triazole]	1010 nM	86%
Cc1nc(-c2ccc(OC(F)F)cc2)c(-c2cc(-c3cccc(S(C)(=O)=O)c3)ccc2-n2cc(C(F)(F)F)nc2C)o1 [Example 619, 4-(4-(difluoromethoxy)phenyl)-2-methyl-5-(4-(2-methyl-4-(trifluoromethyl)-1H-imidazol-1-yl)-3′-(methylsulfonyl)-[1,1′-biphenyl]-3-yl)oxazole]	51 nM	112%
CNS(=O)(=O)c1cccc(-c2ccc(-n3cc(C(F)F)nc3C)c(-n3nncc3-c3ccc(OC(F)(F)F)cc3)c2)c1 [Example 154, 4′-[4-(difluoromethyl)-2-methyl-1H-imidazol-1-yl]-N-methyl-3′-(5-{4-[(trifluoromethyl)oxy]phenyl}-1H-1,2,3-triazol-1-yl)biphenyl-3-sulfonamide]	527 nM	91%
Cc1nc(-c2cc(-c3cc(F)c(CO)c(S(C)(=O)=O)c3)ccc2-n2cc(C(F)(F)F)nc2C)c(-c2ccc(OC(F)F)cc2Cl)o1 [Example 397, (3′-(5-(2-chloro-4-(difluoromethoxy)phenyl)-2-methyloxazol-4-yl)-3-fluoro-4′-(2-methyl-4-(trifluoromethyl)-1H-imidazol-1-yl)-5-(methylsulfonyl)biphenyl-4-yl)methanol]	25 nM	63%
Cc1nc(-c2cc(-c3cccc(S(C)(=O)=O)c3)ccc2-n2cc(C(F)(F)F)nc2C)c(-c2cccnc2OC(F)F)o1 [Example 388, 5-(2-(difluoromethoxy)pyridin-3-yl)-2-methyl-4-(4-(2-methyl-4-(trifluoromethyl)-1H-imidazol-1-yl)-3′-(methylsulfonyl)biphenyl-3-yl)oxazole]	1380 nM	32%
Cc1nc(C(F)(F)F)cn1-c1ccc(-c2cccc(S(C)(=O)=O)c2)cc1-c1oc(CCN2CCCC2)nc1-c1ccc(OC(F)(F)F)cc1 [Example 620, 5-(4-(2-methyl-4-(trifluoromethyl)-1H-imidazol-1-yl)-3′-(methylsulfonyl)-[1,1′-biphenyl]-3-yl)-2-(2-(pyrrolidin-1-yl)ethyl)-4-(4-(trifluoromethoxy)phenyl)oxazole]	202 nM	94%
Cc1nc(C(F)(F)F)cn1-c1ccc(-c2cc(F)cc(S(C)(=O)=O)c2)cc1-c1nc(C(F)(F)F)cn1-c1ccc2c(c1)OC(F)(F)O2 [Example 641, 1-(2,2-difluorobenzo[d][1,3]dioxol-5-yl)-2-(3′-fluoro-4-(2-methyl-4-(trifluoromethyl)-1H-imidazol-1-yl)-5′-(methylsulfonyl)biphenyl-3-yl)-4-(trifluoromethyl)-1H-imidazole]	721 nM	59%
Cc1nc(-c2cc(-c3cccc(S(C)(=O)=O)c3)ccc2-n2cc(C(F)(F)F)nc2C)c(-c2ccc(OC(F)F)c(OCC3CC3)c2)o1 [Example 382, 5-(3-(cyclopropylmethoxy)-4-(difluoromethoxy)phenyl)-2-methyl-4-(4-(2-methyl-4-(trifluoromethyl)-1H-imidazol-1-yl)-3′-(methylsulfonyl)biphenyl-3-yl)oxazole]	57 nM	62%
Cc1nc(C(F)(F)F)cn1-c1ccc(-c2cccc(S(C)(=O)=O)c2)cc1-n1nncc1-c1ccc(C(F)(F)F)nc1 [Example 80, 5-(1-{3′-(methylsulfonyl)-4-[2-methyl-4-(trifluoromethyl)-1H-imidazol-1-yl]biphenyl-3-yl}-1H-1,2,3-triazol-5-yl)-2-(trifluoromethyl)pyridine]	2690 nM	81%

Results, then the compound that gave them:

EC50	Emax	SMILES
617 nM	62%	Cc1nc(C(F)(F)F)cn1-c1ccc(-c2ccc(CO)c(S(C)(=O)=O)c2)cc1-c1nc(CC(C)O)oc1-c1ccc(OC(F)(F)F)cc1 (centres unmarked) [Example 535, 1-(4-(4′-(hydroxymethyl)-4-(2-methyl-4-(trifluoromethyl)-1H-imidazol-1-yl)-3'-(methylsulfonyl)-[1,1′-biphenyl]-3-yl)-5-(4-(trifluoromethoxy)phenyl)oxazol-2-yl)propan-2-ol]
47 nM	103%	Cc1nc(-c2ccc(Cl)cc2Cl)c(-c2cc(-c3ccc(CO)c(S(C)(=O)=O)c3)ccc2-n2cc(C(F)(F)F)nc2C)o1 [Example 614, (3′-(4-(2,4-dichlorophenyl)-2-methyloxazol-5-yl)-4′-(2-methyl-4-(trifluoromethyl)-1H-imidazol-1-yl)-3-(methylsulfonyl)-[1,1′-biphenyl]-4-yl)methanol]
782 nM	102%	Cc1nc(C(F)F)cn1-c1ccc(-c2cc(F)c(CO)c(S(C)(=O)=O)c2)cc1-n1nncc1-c1ccc(OC(F)(F)F)cc1 [Example 220, (4′-(4-(difluoromethyl)-2-methyl-1H-imidazol-1-yl)-3-fluoro-5-(methylsulfonyl)-3′-(5-(4-(trifluoromethoxy)phenyl)-1H-1,2,3-triazol-1-yl)-[1,1′-biphenyl]-4-yl)methanol]
119 nM	51%	Cc1nc(-c2cc(-c3cc(F)c(CO)c(S(C)(=O)=O)c3)ccc2-n2cc(C(F)(F)F)nc2C)c(-c2cccc(OC(F)(F)C(F)F)c2)o1 [Example 546, (3-fluoro-4′-(2-methyl-4-(trifluoromethyl)-1H-imidazol-1-yl)-3′-(2-methyl-5-(3-(1,1,2,2-tetrafluoroethoxy)phenyl)oxazol-4-yl)-5-(methylsulfonyl)-[1,1′-biphenyl]-4-yl)methanol]
255 nM	60%	Cc1nc(-c2cc(-c3cc(F)c(CO)c(S(C)(=O)=O)c3)ccc2-n2cc(C(F)(F)F)nc2C)c(-c2ccc(OC3CCCC3)nc2)o1 [Example 411, (3′-(5-(6-(cyclopentyloxy)pyridin-3-yl)-2-methyloxazol-4-yl)-3-fluoro-4′-(2-methyl-4-(trifluoromethyl)-1H-imidazol-1-yl)-5-(methylsulfonyl)biphenyl-4-yl)methanol]
820 nM	85%	Cc1nc(C(F)(F)F)cn1-c1ccc(-c2cccc(C(C)(C)C(N)=O)c2)cc1-n1nncc1Cc1ccc(Cl)cc1 [Example 119, 2-(3′-{5-[(4-chlorophenyl)methyl]-1H-1,2,3-triazol-1-yl}-4′-[2-methyl-4-(trifluoromethyl)-1H-imidazol-1-yl]biphenyl-3-yl)-2-methylpropanamide]
430 nM	101%	Cc1nc(C(F)(F)F)cn1-c1ccc(-c2cc(Cl)c(CO)c(S(C)(=O)=O)c2)cc1-n1nncc1-c1ccc(OC(F)(F)F)cc1 [Example 212, (3-chloro-4′-(2-methyl-4-(trifluoromethyl)-1H-imidazol-1-yl)-5-(methylsulfonyl)-3′-(5-(4-(trifluoromethoxy)phenyl)-1H-1,2,3-triazol-1-yl)-[1,1′-biphenyl]-4-yl)methanol]
48 nM	77%	Cc1nc(-c2cc(-c3cc(F)c(CO)c(S(C)(=O)=O)c3)ccc2-n2cc(C(F)(F)F)nc2C)c(-c2ccc(OC(F)F)c(F)c2)o1 [Example 377]
138 nM	91%	Cc1nc(C(F)(F)F)cn1-c1ccc(-c2cc(F)c(CO)c(S(C)(=O)=O)c2)cc1-c1ocnc1-c1ccc(OC(F)(F)F)cc1 [Example 359, [3-fluoro-5-(methylsulfonyl)-4′-[2-methyl-4-(trifluoromethyl)-1H-imidazol-1-yl]-3′-(4-{4-[(trifluoromethyl)oxy]phenyl}-1,3-oxazol-5-yl)biphenyl-4-yl]methanol]
